Results taken from PubChem BioAssay (NCI).
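The compound was tested at five concentrations on cells cultured in 96-well plates, with a 48-hour exposure period. GI50 marks 50% less growth. TGI is the concentration that stops growth completely.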

Assays:
Experiment in all cases: growth of human tumour cells (NCI), 48 h
UACC-62 melanoma = test system: UACC-62 melanoma
IGROV1 ovarian = test system: IGROV1 ovarian
TK-10 renal = test system: TK-10 renal
HOP-62 NSCLC = test system: HOP-62 NSCLC
UACC-257 melanoma = test system: UACC-257 melanoma
A549 NSCLC = test system: A549 NSCLC
SK-OV-3 ovarian = test system: SK-OV-3 ovarian
BT-549 breast = test system: BT-549 breast
NCI-H23 lung = test system: NCI-H23 lung
SNB-19 CNS = test system: SNB-19 CNS

SMILES | GI50 (UACC-62 melanoma) [µM] | TGI (UACC-62 melanoma) [µM] | GI50 (IGROV1 ovarian) [µM] | TGI (IGROV1 ovarian) [µM] | GI50 (TK-10 renal) [µM] | TGI (TK-10 renal) [µM] | GI50 (HOP-62 NSCLC) [µM] | TGI (HOP-62 NSCLC) [µM] | GI50 (UACC-257 melanoma) [µM] | TGI (UACC-257 melanoma) [µM] | GI50 (A549 NSCLC) [µM] | TGI (A549 NSCLC) [µM] | GI50 (SK-OV-3 ovarian) [µM] | TGI (SK-OV-3 ovarian) [µM] | GI50 (BT-549 breast) [µM] | TGI (BT-549 breast) [µM] | GI50 (NCI-H23 lung) [µM] | TGI (NCI-H23 lung) [µM] | GI50 (SNB-19 CNS) [µM] | TGI (SNB-19 CNS) [µM]
Cc1cc(N2CCN(C)CC2)nc(NC2CCCC(Nc3ccnc4cc(Cl)ccc34)C2)n1 (stereo not given) | 1.8 | 3.54 | 2.24 | 7.85 | 1.81 | 3.63 | 2.22 | 6.03 | 2.1 | 3.93 | 3.14 | 11 | 3.35 | 11.5 | 2.08 | 5.76 | 4.19 | 17.7 | 3.42 | 13.2
O=C1C(Nc2ccccn2)=C(I)C(=O)c2ncccc21 | 1.28 | 2.67 | 0.741 | 2.25 | 1.87 | 3.65 | 1.12 | 2.43 | 1.59 | 3.49 | 1.28 | 2.88 | 1.33 | 2.64 | 1.54 | 3.14 | 0.584 | 2.61 | 1.04 | 2.24
C=C1CC2(OC1=O)c1ccccc1CCc1ccccc12 |  | 15.9 |  | 14.1 |  | 7.09 |  | 44 |  | 7.9 |  | 21.8 |  | 31.9 |  | 3.78 |  | 23 |  | 15.6
C=CCSc1n[nH]c(-c2cccs2)n1 | > 100 | > 100 | > 100 | > 100 | > 100 | > 100 | > 100 | > 100 | > 100 | > 100 | > 100 | > 100 | > 100 | > 100 | > 100 | > 100 | > 100 | > 100 | > 100 | > 100
CC1=COC2=C(C)C(=O)C(=O)c3c(C)ccc1c32 |  | 11.9 |  | 21.6 |  | > 92.6 |  | > 36.9 |  | 20.6 |  | 15.2 |  | > 93.2 |  | 38.3 |  | 14.3 |  | > 40.5
C=CC1=C(C)C2=NC1=CC1=NC(=C(CC)/C1=C/O)C=C1C=C3C(=O)C(C(=O)OC)C(=C4NC(=C2)C(C)C4CCC(=O)OC/C=C(\C)CCCC(C)CCCC(C)CCCC(C)C)C3=N1 (stereo not given) (tested in a mixture with another compound) |  | > 100 |  | > 100 |  | > 100 |  | > 100 |  | > 100 |  | > 100 |  | > 100 |  | > 100 |  | > 100 |  | > 100
CCN(C)S(=O)(=O)Nc1cccc(Nc2ncnc3cc(NC(=O)CCl)ccc23)c1Cl | 1.18 | 4.46 | 3.5 | 8.62 | 4.64 | 13.3 | 3.42 | 7.73 | 3.59 | 15.8 | 6.18 | 16.3 | 5.58 | 19.1 | 2.54 | 6.66 | 2.54 | 7.88 | 2.99 | 7.18
O=C(Nc1ccc(-n2cc(-c3ccncc3)c(-c3ccc(Cl)c(O)c3)n2)cc1)c1cc(Cl)cc(Cl)c1 | 2.96 | > 28.1 | > 100 | > 100 | > 19.9 | > 100 | 2.49 | 18.8 | 5.68 | > 100 | > 28 | > 100 | > 21.2 | > 100 | 2.53 | > 100 | 7.41 | > 100 | > 36.2 | > 100
